Consider 16 molecules from US6579881B2 (Eisai Co., Ltd., priority 1997, dated 2003).

One experiment has as its target T1, serotonin 1A receptor (Rattus norvegicus, UniProt P19327).
T1 construct: To the receptor fraction of the hippocampus were added a test compound and 0.5 nM of [^3H]; 8-hydroxy-dipropylaminotetralin; from tissue; host or cells: SD rat hippocampus, membrane (receptor) fraction
T1 sequence (P19327 1-422): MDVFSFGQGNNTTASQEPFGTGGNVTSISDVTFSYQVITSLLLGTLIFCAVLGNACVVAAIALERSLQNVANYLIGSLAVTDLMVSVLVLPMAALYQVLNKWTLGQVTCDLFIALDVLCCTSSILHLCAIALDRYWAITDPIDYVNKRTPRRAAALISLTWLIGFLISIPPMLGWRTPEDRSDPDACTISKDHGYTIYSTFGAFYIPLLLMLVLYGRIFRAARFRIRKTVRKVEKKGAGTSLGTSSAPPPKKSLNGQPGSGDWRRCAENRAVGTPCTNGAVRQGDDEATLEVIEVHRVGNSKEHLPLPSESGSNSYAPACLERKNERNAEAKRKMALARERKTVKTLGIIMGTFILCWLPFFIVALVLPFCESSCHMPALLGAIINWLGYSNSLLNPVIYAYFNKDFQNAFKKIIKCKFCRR
Nature of the experiment: Binding test on [3H] 8-hydroxy-dipropylaminotetralin (serotonin 1A receptor). Conditions: [3H] 8-OH-DPAT 0.5 nM, receptor fraction of rat hippocampus; read-out: 5HT1a.

The target in another experiment is serotonin 2 receptor (Rattus norvegicus, UniProt P14842). Nature of the experiment: Binding test on [3H] ketanserin (serotonin 2 receptor). The following applies: [3H] ketanserin 0.3 nM, receptor fraction of rat cerebral cortex; read-out: 5HT2.
serotonin 2 receptor, sequence (P14842 whole entry): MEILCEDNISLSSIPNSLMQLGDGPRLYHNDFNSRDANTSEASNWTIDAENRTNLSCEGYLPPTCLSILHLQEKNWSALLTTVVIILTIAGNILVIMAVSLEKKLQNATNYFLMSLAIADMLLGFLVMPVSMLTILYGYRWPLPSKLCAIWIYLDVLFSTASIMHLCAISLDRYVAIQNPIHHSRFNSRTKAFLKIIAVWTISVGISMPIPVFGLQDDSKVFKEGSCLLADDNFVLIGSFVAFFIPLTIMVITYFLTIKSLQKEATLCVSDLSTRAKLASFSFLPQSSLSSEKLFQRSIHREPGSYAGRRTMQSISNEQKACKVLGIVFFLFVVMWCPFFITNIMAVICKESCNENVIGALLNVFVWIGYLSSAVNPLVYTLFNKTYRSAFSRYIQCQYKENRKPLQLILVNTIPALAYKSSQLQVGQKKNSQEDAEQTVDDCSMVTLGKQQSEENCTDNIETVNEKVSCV

Structures can show the parent of a compound that is named as a salt. Bounds are passed on as bounds.

For `CCN1CCC(CN2CC(Cc3ccc(OC)cc3)c3ccccc32)CC1` (centres unmarked) [Example 243, 1-[(1-ethylpiperidin-4-yl)methyl]-3-(4-methoxybenzyl)indoline], the values for the Ki on serotonin 1A receptor and at serotonin 2 receptor were more than 0.2 µM and 0.053 µM, respectively.

As to `COc1cncc(CCN2CCC(N3CCc4ccccc43)CC2)c1` [Example 53, 1-{1-[2-(3-methoxypyridin-5-yl)ethyl]piperidin-4-yl}indoline], the Ki at serotonin 1A receptor was found to be 0.0215 µM; at serotonin 2 receptor, 0.0021 µM.

As to `Fc1ccc(CCN2CCC(N3CCc4ccccc43)CC2)c(F)n1` [Example 57, 1-[1-(2,6-difluoro-3-pyridylethyl)piperidin-4-yl]indoline], the figures for the Ki at serotonin 1A receptor and on serotonin 2 receptor were 0.0146 µM and 0.0011 µM, respectively.

Consider `CCS(=O)(=O)Nc1ccc2c(c1)N(C1CCN(CCc3ccc(F)cc3)CC1)CC2` [Example 117, 1-[1-(4-fluorophenethyl)piperidin-4-yl]-6-ethanesulfonylaminoindoline], for which the Ki at serotonin 1A receptor was determined as 0.0006 µM; on serotonin 2 receptor, 0.0107 µM.

For the molecule `NCc1ccc(CCN2CCC(N3CCc4ccccc43)CC2)cc1` [Example 35, 1-[1-(4-aminomethylphenethyl)piperidin-4-yl]indoline], the Ki on serotonin 1A receptor worked out at 0.0166 µM; on serotonin 2 receptor, 0.0376 µM.

Consider `Fc1ccc(CCN2CCC(N3CCc4ccc(Cc5cccnc5)cc43)CC2)cc1` [Example 177, 1-[1-(4-fluorophenethyl)piperidin-4-yl]-6-[1-(3-pyridyl)methyl]indoline], for which the Ki was 0.00025 µM at serotonin 1A receptor and 0.00092 µM at serotonin 2 receptor.

Regarding `CN(C)c1ccc(C(O)c2ccc3c(c2)N(C2CCN(CCc4ccc(F)cc4)CC2)CC3)cn1` (centres unmarked) [Example 191, 1-[1-(4-fluorophenethyl)piperidin-4-yl]-6-[1-hydroxy-1-(2-dimethylaminopyridin-5-yl)methyl]indoline], the Ki at serotonin 1A receptor was found to be 0.0291 µM; on serotonin 2 receptor, 0.00032 µM.

In the case of `O=Cc1ccc2c(c1)N(C1CCN(CCc3ccc(F)cc3)CC1)CC2` [Example 130, 1-[1-(4-fluorophenethyl)piperidin-4-yl]-6-formylindoline], the Ki at serotonin 1A receptor is 0.00049 µM; on serotonin 2 receptor, 0.00912 µM.

In the case of `CC1CC(C2CCN(CCc3ccc(F)cc3)CC2)c2nccnc21` (mixture of isomers) [Example 266, 5-[1-(4-fluorophenethyl)piperidin-4-yl]-7-methyl-5,6-dihydro-5H-cyclopentapyrazine], the Ki amounted to 0.0316 µM at serotonin 1A receptor and 0.0226 µM on serotonin 2 receptor.

For the molecule `Brc1ccc(CCN2CCC(N3CCc4ccccc43)CC2)cc1` [Example 4, 1-[1-(4-bromophenethyl)piperidin-4-yl]indoline], the Ki was 0.006 µM at serotonin 1A receptor and 0.0249 µM on serotonin 2 receptor.

Regarding `Fc1ccc(CCCCN2CCC(N3CCc4ccccc43)CC2)cc1` [Example 15, 1-[1-(4-fluorophenylbutyl)piperidin-4-yl]indoline], the Ki at serotonin 1A receptor and on serotonin 2 receptor was 0.0286 µM each time.

Consider `Clc1ccc(CCN2CCC(N3CCc4ccccc43)CC2)cc1` [Example 6, 1-[1-(4-chlorophenethyl)piperidin-4-yl]indoline], for which the Ki on serotonin 1A receptor was found to be 0.0045 µM; at serotonin 2 receptor, 0.0174 µM.

On to `CCN1CCN(C2CCc3ccc(OC)cc32)CC1` (centres unmarked) [Example 251, 1-(4-ethylpiperazin-1-yl)-6-methoxyindan Hydrochloride], for which the figures for the Ki at serotonin 1A receptor and on serotonin 2 receptor were 0.0585 µM and more than 0.2 µM, respectively.

On to `OC[C@@H]1CN(CCc2ccc(F)cc2)CC[C@@H]1N1CCc2ccccc21` (relative stereo) [Example 81, cis-1-[1-(4-fluorophenethyl)-3-hydroxymethylpiperidin-4-yl]indoline], for which the Ki on serotonin 1A receptor amounted to 0.0443 µM.

For `COc1ccc2c(c1)CCN2C1CCN(CCc2ccc(F)cc2)CC1` [Example 99, 1-[1-(4-fluorophenethyl)piperidin-4-yl]-5-methoxyindoline], the Ki at serotonin 2 receptor was 0.0087 µM.

Consider `O=C(Cc1ccc2c(c1)N(C1CCN(CCc3ccc(F)cc3)CC1)CC2)NC1CC1` [Example 154, 1-[1-(4-fluorophenethyl)piperidin-4-yl]-6-(cyclopropylcarbamoylmethyl)indoline], for which, at serotonin 1A receptor, the Ki worked out at 0.00652 µM.
